Test results published in ChEMBL document CHEMBL2157896, “Engineering pH-gated transitions for selective and efficient double-strand DNA photocleavage in hypoxic tumors” (J Med Chem, 2011).
Calls of active or inactive are those of the source. No cut-off for these calls is given here.

Key:
[1] = tested on: A-375; test: Toxicity in human A375 cells at <10 uM under dark condition incubated for 72 hrs by MTT assay; assay type: cell-based; details: a-375, 72 h
[2] = tested on: A-375; test: Phototoxicity in human A375 cells incubated for 72 hrs exposed to UV light for 10 mins by MTT assay; assay type: functional
[3] = tested on: A-375; test: Drug uptake in human A375 cells at 30 uM incubated for 30 mins by differential interference contrast microscopy; assay type: ADME, cell-based; details: a-375, 0.5 h
[4] = tested on: A-375; test: Drug uptake in human A375 cells at 30 uM incubated for 30 mins by fluorescence microscopy; assay type: ADME, cell-based; details: a-375, 0.5 h
[5] = tested on: Nucleic Acid; test: Induction of DNA damage in Escherichia coli pBR322 at 5 uM in pH 6.0 phosphate buffer measured after of UV irradiation; assay type: nucleic-acid assay
[6] = tested on: Nucleic Acid; test: Induction of DNA cleavage in Escherichia coli pBR322 at 5 uM in pH 7.0 phosphate buffer measured after of UV irradiation; assay type: nucleic-acid assay
[7] = tested on: Nucleic Acid; test: Induction of DNA cleavage in Escherichia coli pBR322 at 5 uM in pH 6.0 phosphate buffer measured after of UV irradiation; assay type: nucleic-acid assay
[8] = tested on: Nucleic Acid; test: Induction of DNA cleavage in Escherichia coli pBR322 at 10 uM in pH 7.0 phosphate buffer measured after of UV irradiation; assay type: nucleic-acid assay
[9] = tested on: Nucleic Acid; test: Induction of DNA cleavage in Escherichia coli pBR322 at 10 uM in pH 8.0 phosphate buffer measured after of UV irradiation; assay type: nucleic-acid assay
[10] = tested on: Nucleic Acid; test: Induction of photochemical DNA cleavage in Escherichia coli pBR322 assessed as disappearance of supercoiled DNA at 15 uM in pH 7.0 phosphate buffer after 10 mins of UV irradiation; assay type: nucleic-acid assay
[11] = tested on: Nucleic Acid; test: Induction of photochemical DNA cleavage in Escherichia coli pBR322 assessed as supercoiled DNA level at 15 uM in pH 6.0 phosphate buffer measured after 30 secs of UV irradiation; assay type: nucleic-acid assay
[12] = tested on: Nucleic Acid; test: Induction of photochemical DNA cleavage in Escherichia coli pBR322 assessed as disappearance of supercoiled DNA at 15 uM in pH 8.0 phosphate buffer after 10 mins of UV irradiation; assay type: nucleic-acid assay
[13] = tested on: Nucleic Acid; test: Induction of DNA cleavage in Escherichia coli pBR322 at 10 uM in pH 6.0 phosphate buffer measured after of UV irradiation; assay type: nucleic-acid assay
[14] = tested on: Nucleic Acid; test: Induction of DNA cleavage in Escherichia coli pBR322 at 15 uM in pH 6.0 phosphate buffer measured after of UV irradiation; assay type: nucleic-acid assay
[15] = tested on: Nucleic Acid; test: Induction of photochemical DNA cleavage in Escherichia coli pBR322 assessed as supercoiled DNA level at 10 uM in pH 6.0 phosphate buffer measured after UV irradiation; assay type: nucleic-acid assay
[16] = tested on: Nucleic Acid; test: Induction of photochemical DNA cleavage in Escherichia coli pBR322 assessed as disappearance of supercoiled DNA at 15 uM in pH 6.0 phosphate buffer after 10 mins of UV irradiation; assay type: nucleic-acid assay
[17] = tested on: Nucleic Acid; test: Induction of DNA cleavage in Escherichia coli pBR322 assessed as form3/form2 ratio at 15 uM at pH 6 to 9 after 10 mins of UV irradiation; assay type: nucleic-acid assay
[18] = tested on: Nucleic Acid; test: Induction of DNA cleavage in Escherichia coli pBR322 assessed as form3/form2 ratio after UV irradiation; assay type: nucleic-acid assay

Drug uptake [3] | Drug uptake [4] | Activity [6] | Activity [7] | Activity [8] | Activity [9] | Activity [10] | Activity [11] | Activity [12] | Activity [13] | Activity [14] | Activity [15] | Activity [16] | Ratio [17] | Activity [18] | Structure (SMILES) | Activity [1] | CC50 [2] | Activity [5]
Active | Active | inactive | 17% | Active | Active | – | – | – | – | – | – | – | – | – | NCCCC[C@H](N)C(=O)NCCCC[C@H](N)C(=O)Nc1ccc(C#Cc2c(F)c(F)nc(F)c2F)c(C#Cc2c(F)c(F)nc(F)c2F)c1.O=C(O)C(F)(F)F | Non-toxic | Active | 92%
Active | Active | – | 32% | > 61% | – | Active | Active | Active | 136% | 155% | inactive | Active | 1 | – | NCCCC[C@H](NC(=O)[C@@H](N)CCCCN)C(=O)Nc1ccc(C#Cc2c(F)c(F)nc(F)c2F)cc1.O=C(O)C(F)(F)F | Non-toxic | Active | –
Active | Active | inactive | 13% | Active | Active | – | – | – | – | – | – | – | – | – | NCCCC[C@H](NC(=O)[C@@H](N)CCCCN)C(=O)Nc1ccc(C#Cc2c(F)c(F)nc(F)c2F)c(C#Cc2c(F)c(F)nc(F)c2F)c1.O=C(O)C(F)(F)F | Non-toxic | Active | 77%
– | – | – | – | – | – | – | – | – | – | – | – | – | – | Active | CCN[C@H]1CO[C@@H](O[C@H]2[C@H](O[C@H]3C#C/C=C\C#C[C@]4(O)CC(=O)C(NC(=O)OC)=C3/C4=C\CSSSC)O[C@H](C)[C@@H](NO[C@H]3C[C@H](O)[C@H](SC(=O)c4c(C)c(I)c(O[C@@H]5O[C@@H](C)[C@H](O)[C@@H](OC)[C@H]5O)c(OC)c4OC)[C@@H](C)O3)[C@@H]2O)C[C@@H]1OC | – | – | –
